Patent US8703812B2, “Protein synthesis required for long-term memory is induced by PKC activation on days preceding associative learning” (Blanchette Rockefeller Neurosciences Institute, priority 2005, dated 2014)
Entries after “also recorded” stand apart in the source; their conditions may differ.

Tests used:
Hermissenda Crassicornis = assay: Pavlovian conditioning of Hermissenda (retention of conditioned response); format: in vivo; conditions: for concentration that inhibited acquisition and behavioral retention: all training conditions tested
Procedure: Bryostatin exposure—Specimens of Hermissenda Crassicornis were maintained in artificial sea water (ASW) at 15° for three days in perforated 50-ml conical centrifuge tubes before starting experiments. Bryostatin, purified from the marine bryozoan Bugula neritina, was dissolved in EtOH and diluted to its final concentration in ASW. […] For selected experiments lactacysteine (10 μM) or anisomycin was added to the ASW.
Bryostatin effects on Hermissenda behavior and biochemistry were produced by adding the drug to the bathing medium within an 8 cm long, 1 cm diameter test tube housing each individual animal.
Pavlovian conditioning of Hermissenda involves repeated pairings of a neutral stimulus, light, with an unconditioned stimulus, orbital shaking. (See, Lederhendler et al. (24) and Epstein et al. (6)). A rotation/shaking stimulus excites the statocyst hair cells and thereby elicits an unconditioned response: a brisk contraction of the muscular undersurface called a foot, accompanied by adherence or “clinging” to the surface that supports the foot. Before conditioning, light elicits a weakly positive phototaxis accompanied by lengthening of the foot. After sufficient light-rotation pairings, light no longer elicits phototaxis, but instead elicits a new response (24): the “clinging” and foot shortening previously elicited only by the unconditional stimulus (FIG. 1). Thus, the meaning of the unconditioned stimulus, rotation or orbital shaking, has been transferred to the conditioned stimulus and is manifested by a light-elicited foot contraction—a negative change of foot length. This conditioned response to light can last for weeks, is not produced by randomized light and rotation, is stimulus-specific, and shares the other defining characteristics of mammalian Pavlovian Conditioning.
Pavlovian conditioning of Hermissenda has well-defined training parameters that produce progressively longer-lasting retention of the learned conditioned response. Two training events (2 TE) of paired light and orbital shaking (see “Methods”), for example, induce a learned conditioned response (light-elicited foot contraction or shortening) that persists without drug treatment for approximately 7 minutes. Four to six training events (4-6 TE) induce a conditioned response that persists up to several hours, but disappears approximately by 1 day after training. Nine TE produces long-term associative memory lasting many days and often up to two weeks.

PKC [1] = assay: Protein kinase C assay in cultured hippocampal neurons; format: cell-based, Rat
Procedure: Cells were homogenized by sonication (5 sec, 25 W) in 100 μl of 10 mM Tris-HCl pH 7.4 buffer containing 1 mM EGTA, 1 mM PMSF, and 50 mM NaF. Homogenate was transferred to a polyallomer centrifuge tube and was centrifuged at 100,000×g for 10 min at 4°. The supernatant was removed and immediately frozen on dry ice. The particulate fraction was resuspended by sonication in 100 μl of the same buffer and stored at −80°. To measure PKC, 10 μl of cytosol or particulate fraction was incubated for 15 min at 37° in the presence of 10 μM histones, 4.89 mM CaCl2, 1.2 μg/μl phosphatidyl-L-serine, 0.18 μg/μl 1,2-dioctanoyl-sn-glycerol, 10 mM MgCl2, 20 mM HEPES (pH 7.4), 0-8 mM EDTA, 4 mM EGTA, 4% glycerol, 8 μg/ml aprotinin, 8 μg/ml leupeptin, and 2 mM benzamidine. 0.5 μCi [γ^32P]ATP was added and ^32P-phosphoprotein formation was measured by adsorption onto phosphocellulose as described previously (25). This assay was used with slight adjustments for either Hermissenda nervous system homogenates or cultured mammalian neuron homogenates
Rat hippocampal H19-7/IGF-IR cells (ATCC) were plated onto poly-L-lysine coated plates and grown at 35° in DMEM/10% FCS for several days until approx. 50% coverage was obtained. The cells were then induced to differentiate into a neuronal phenotype by replacing the medium with 5 ml N2 medium containing 10 ng/ml basic fibroblast growth factor and grown in T-25 flasks at 39° C. (26). Various concentrations of bryostatin (0.01-1.0 nM) were then added in 10 μl aqueous solution. After a specified interval, the medium was removed and the cells were washed with PBS, removed by gentle scraping, and collected by centrifugation at 1000 rpm for 5 min.
To further examine biochemical consequences of repeated exposures to bryostatin, rat hippocampal neurons were studied after they had been immortalized by retroviral transduction of temperature sensitive tsA5CSV40 large T antigen (25). These differentiate to have a neuronal phenotype when induced by basic fibroblast growth factor in N2 medium (26) and express a normal complement of neuronal proteins, including PKC.

PKC [2] = conditions: cited from earlier work
sAPP secretion [3] = conditions: human fibroblasts; cited from earlier work
[4] = cited from earlier work
calexcitin = assay: Calexcitin immunostaining in B-photoreceptors; format: in vivo, Hermissenda
Procedure: Following experimental treatments and testing, animals were rapidly decapitated, the central nervous systems (CNS) removed and then fixed in 4% para-formaldehyde in 20 mM Tris-buffered (pH 8) natural seawater (NSW; 0.2 μm micropore-filtered). The CNSs were then embedded in polyester wax (20), sectioned (6 μm) and immunostained using a biotinylated secondary antibody coupled to avidin-bound microperoxidase (ABC method, Vector), Aminoethylcarbazole (AEC) was used as the chromogen. The primary polyclonal antibody (designated 25U2) was raised in rabbits from the full length calexcitin protein extracted from squid optic lobes. Gray-scale intensity measures were done from digital photomicrographs on circumscribed cytoplasmic areas of the B-photoreceptors minus the same background area (non-staining neuropile).

sAPP secretion [5] = assay: sAPP secretion / alpha-secretase APP processing; format: cell-based; conditions: 0.1 nM bryostatin-1
[6] = in vivo; cited from earlier work
[7] = single bryostatin 0.28 nM for 30 minutes

Structure (SMILES): CCC/C=C/C=C/C(=O)O[C@H]1/C(=C/C(=O)OC)C[C@H]2C[C@H]([C@@H](C)O)OC(=O)C[C@H](O)C[C@@H]3C[C@H](OC(C)=O)C(C)(C)[C@](O)(C[C@@H]4C/C(=C/C(=O)OC)C[C@H](/C=C/C(C)(C)[C@]1(O)O2)O4)O3 [bryostatin, bryostatin-1]
- retention (Hermissenda Crassicornis; 2-TEs with two bryostatin exposures): more than one week
- retention of behavioral conditioning tested after 4 h (Hermissenda Crassicornis; 2-paired TEs, bryostatin 0.25 ng/ml from 10-min dark adaptation and 4 h thereafter): demonstrated retention of the behavioral conditioning
- memory retention (Hermissenda Crassicornis; 2 TE plus bryostatin, 4 hours during and after training): lasting hours; also recorded: several hours
- memory retention (Hermissenda Crassicornis; 4 TEs plus bryostatin): > 24 h
- memory duration (Hermissenda Crassicornis; 6 TE with bryostatin (only hours without)): many days
- memory retention (Hermissenda Crassicornis; 4 hour bryostatin on the day preceding training and on the day of 2 TE): more than one day
- retention (Hermissenda Crassicornis; 20 h pre-exposure to bryostatin 0.25 ng/ml, 4-paired TE): persisted
- retention (Hermissenda Crassicornis; 20 hr bryostatin 0.25 ng/ml exposure, 2-paired TE): ≤ 48 h
- low doses that markedly enhanced memory (Hermissenda Crassicornis; after 2, 4, or 6 training trials): 0.1 to 0.25 ng/mL
- concentration that inhibited acquisition and behavioral retention (Hermissenda Crassicornis): greater than 1.0 ng/ml
- concentration that inhibited acquisition and behavioral retention (Hermissenda Crassicornis; listed as Bryostatin): ≥ 1.0 ng/mL
- conditioned response (foot contraction) tested at 4 h (Hermissenda Crassicornis; bryostatin 0.25 ng/ml before 6-TE conditioning and 4 hours thereafter): produced a positive CR
- effect on retention performance (Hermissenda Crassicornis; bryostatin <0.50 ng/ml, 9-paired TEs): no demonstrable effects on retention performance
- memory retention versus 4 hour exposures (Hermissenda Crassicornis; bryostatin exposure for 8 to 20 hours followed by 2 TE): not sufficient
- behavioral retention lost after (Hermissenda Crassicornis; bryostatin only 4 h, 2-paired TEs 24 hrs later): ≤ 24 h
- conditioned response (Hermissenda Crassicornis; randomized presentations of light and rotation, with bryostatin): produced no conditioned response
- long-term retention (tested with CS alone at 4 h, then 24-h intervals) (Hermissenda Crassicornis; sub-optimal 4- and 6-paired TEs, bryostatin 0.25 ng/ml from dark adaptation and for 4 hours): all demonstrated long-term retention
- concentrations that augment acquisition and memory retention (Hermissenda Crassicornis; sub-optimal (4 TE) training): < 0.50 ng/mL
- long-term retention (LTR) post-training (Hermissenda Crassicornis; three successive days of 4-h bryostatin 0.25 ng/ml, one day later 2-TEs): ≥ 96 h
- long-term retention (Hermissenda Crassicornis; two successive days of 4-h bryostatin 0.25 ng/ml, 2-paired TEs): at least 6 days
- cytosolic PKC activity (PKC [1]; first 4 hours after single bryostatin exposure): no significant alteration; also recorded: not altered
- effect of second exposure on downregulation of membrane-bound PKC (PKC [1]; second 30-minute exposure after 2- to 4-hour delay): eliminated the significant downregulation; also recorded: significantly attenuates the downregulation
- cytosolic PKC activity (PKC [1]; second bryostatin exposure delayed until 4 hours after the first): increased above baseline
- cytosolic PKC activity (PKC [1]; second bryostatin exposure within 2 hr of the first): significant reduction of PKC activity
- membrane-bound PKC after brief translocation (PKC [1]; [7]): prolonged downregulation
- translocation of PKC from cytosol to particulate fraction (PKC [1]; [7]): approx 60%
- concentrations that activate PKC (PKC [2]): sub-nanomolar
- alpha-secretase cleavage of APP to sAPP (sAPP secretion [3]): activate the alpha-secretase
- tolerability ([4]; 20 μg/m^2 once per week for 3 weeks): well tolerated and were not associated with myalgia or other side effects
- maximum-tolerated dose ([4]; 1 hour i.v. infusion once every 2 weeks for 6 weeks): 50 μg/m^2
- maximum tolerated dose ([4]; once per week for 8 weeks): 25 μg/m^2
- myalgia reported, of all treated patients ([4]; phase II clinical trials): 10 to 87%
- CE immunostaining (calexcitin; 24 hours after 1 bryostatin exposure for four hours, no conditioning): not elevated
- CE immunostaining (calexcitin; 24 hours after 2 bryostatin exposures on two successive days, no conditioning): greater residual CE immunostaining
- levels of calexcitin in B-photoreceptors (calexcitin; bryostatin alone 4-hr over each of 1, 2, and 3 days, measured 24 hours after each): progressively increased the levels of calexcitin
- CE immunostaining (calexcitin; bryostatin plus 6 TE): comparable to that observed after 9 TE
- calexcitin levels increase (calexcitin; paired training (6PTE) with bryostatin 0.25): greater than 4.3 ×
- rise in calexcitin (CE) immuno-intensity (calexcitin; random training (4RTE) with bryostatin 0.25): 2.0
- CE immunostaining (calexcitin; three 4 hour bryostatin exposures, 2 TE on subsequent day, 24 hours later): approached the levels previously observed immediately following 9 TE
- calexcitin level (calexcitin; two 4-hr bryostatin exposures (0.25 ng/ml) on successive days, then 2-paired TEs): significantly increased calexcitin to levels associated with 9-paired TEs; also recorded: raise calexcitin levels to the amount associated with consolidated long-term memory
- sAPP secretion (sAPP secretion [5]): dramatic increase of sAPP secretion
- rat spatial maze learning [6]: enhanced
